Laboratory results from US12703729B2, “GIP agonist compounds and methods” (Zealand Pharma A/S, priority 2014, dated 2026).
Starred links: 1 amine or outer side, 2 acyl side, 3 side chain; linkers in the order of their positions; H or OH if unused. Non-standard residues stand in square brackets, D forms with d. Residues, ends and D or L forms follow the SMILES beside them. Groups on a side chain read outwards from the residue. *: point of attachment. X1 = O=C(O)CCCCCCCCCCCCCCCCCCC(=O)N1CCN(CC(=O)*)CC1; C20 diacid = O=C(O)CCCCCCCCCCCCCCCCCCC(=O)*; γGlu = O=C(O)[C@H](CCC(=O)[*:2])N[*:1]; AEEA = NCCOCCOCC(=O)O; Aib = CC(C)(N)C(=O)O

Tests used:
[1] = molecular target: T1, human GIP R (Homo sapiens, UniProt P48546); test: cell-based
T1 sequence (P48546 22-466): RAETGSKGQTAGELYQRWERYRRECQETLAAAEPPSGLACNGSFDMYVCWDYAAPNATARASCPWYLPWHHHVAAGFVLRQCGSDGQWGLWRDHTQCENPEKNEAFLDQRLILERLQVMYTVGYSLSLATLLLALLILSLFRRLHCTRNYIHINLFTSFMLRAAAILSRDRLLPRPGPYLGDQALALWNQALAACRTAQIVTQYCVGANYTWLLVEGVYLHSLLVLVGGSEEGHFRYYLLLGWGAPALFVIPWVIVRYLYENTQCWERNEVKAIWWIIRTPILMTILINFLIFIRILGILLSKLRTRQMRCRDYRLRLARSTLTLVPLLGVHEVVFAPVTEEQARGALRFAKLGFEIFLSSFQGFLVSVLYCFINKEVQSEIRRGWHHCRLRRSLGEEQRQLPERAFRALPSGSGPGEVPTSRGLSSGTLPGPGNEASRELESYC

[2] = molecular target: T2, human GIP receptor (GIP R) (Homo sapiens, UniProt P48546); test: Activity assay at human GIP receptor, cAMP induction (AlphaScreen), Example 3
T2 sequence (P48546 22-466): T1 sequence (P48546 22-466)

[3] = molecular target: human GLP-1 receptor (GLP-1R) (Homo sapiens, UniProt P43220); test: Activity assay at human GLP-1 receptor, cAMP induction (AlphaScreen), Example 3
Sequence of human GLP-1 receptor (GLP-1R) (P43220 24-463): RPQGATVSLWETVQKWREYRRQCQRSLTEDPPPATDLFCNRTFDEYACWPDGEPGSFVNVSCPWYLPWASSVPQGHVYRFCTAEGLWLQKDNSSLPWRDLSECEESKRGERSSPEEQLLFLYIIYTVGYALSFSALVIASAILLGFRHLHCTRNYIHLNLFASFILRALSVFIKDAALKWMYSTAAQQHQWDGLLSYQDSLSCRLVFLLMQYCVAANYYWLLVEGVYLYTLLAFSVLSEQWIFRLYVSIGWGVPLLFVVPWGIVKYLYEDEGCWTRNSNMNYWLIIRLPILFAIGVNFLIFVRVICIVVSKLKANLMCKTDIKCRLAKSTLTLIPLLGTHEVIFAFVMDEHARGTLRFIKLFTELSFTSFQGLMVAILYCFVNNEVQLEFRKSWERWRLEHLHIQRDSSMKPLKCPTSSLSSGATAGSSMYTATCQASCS

SMILES | EC50 [1] [nM] | EC50 [2] [nM] | EC50 [3] [nM]
CC[C@H](C)[C@H](NC(=O)[C@H](CO)NC(=O)[C@H](Cc1ccc(O)cc1)NC(=O)[C@H](CC(=O)O)NC(=O)[C@H](CO)NC(=O)[C@@H](NC(=O)[C@H](Cc1ccccc1)NC(=O)[C@@H](NC(=O)CNC(=O)[C@H](CCC(=O)O)NC(=O)C(C)(C)NC(=O)[C@@H](N)Cc1ccc(O)cc1)[C@@H](C)O)[C@@H](C)CC)C(=O)N[C@@H](CCC(=O)O)C(=O)N[C@@H](CC(C)C)C(=O)N[C@@H](CC(=O)O)C(=O)N[C@@H](CCCCN)C(=O)N[C@@H](CCCCNC(=O)COCCOCCNC(=O)COCCOCCNC(=O)CC[C@H](NC(=O)CCCCCCCCCCCCCCCCCCC(=O)O)C(=O)O)C(=O)N[C@@H](C)C(=O)N[C@@H](C)C(=O)N[C@@H](CCC(N)=O)C(=O)N[C@@H](CC(=O)O)C(=O)N[C@@H](Cc1ccccc1)C(=O)N[C@H](C(=O)N[C@@H](CC(N)=O)C(=O)N[C@@H](Cc1c[nH]c2ccccc12)C(=O)N[C@@H](CC(C)C)C(=O)N[C@@H](CC(C)C)C(=O)N[C@@H](C)C(=O)N[C@@H](C)C(=O)NCC(=O)N1CCC[C@H]1C(=O)N[C@@H](CO)C(=O)N[C@@H](CO)C(=O)NCC(=O)N[C@@H](C)C(=O)N1CCC[C@H]1C(=O)N1CCC[C@H]1C(=O)N1CCC[C@H]1C(=O)N[C@@H](CO)C(N)=O)C(C)C [Compound 30] (H-Y[Aib]EGTFISDYSIELDKK([AEEA-AEEA-γGlu-C20 diacid])AAQDFVNWLLAAGPSSGAPPPS-NH2) | 0.009 | 0.014 | > 10
CC[C@H](C)[C@H](NC(=O)[C@H](Cc1ccccc1)NC(=O)[C@H](CC(=O)O)NC(=O)[C@H](CCC(N)=O)NC(=O)[C@H](C)NC(=O)[C@H](C)NC(=O)[C@H](CCCCNC(=O)COCCOCCNC(=O)COCCOCCNC(=O)CC[C@H](NC(=O)CCCCCCCCCCCCCCCCCCC(=O)O)C(=O)O)NC(=O)[C@H](CCCCN)NC(=O)[C@H](CC(=O)O)NC(=O)[C@H](CC(C)C)NC(=O)[C@H](CCC(=O)O)NC(=O)[C@@H](NC(=O)[C@H](CO)NC(=O)[C@H](Cc1ccc(O)cc1)NC(=O)[C@H](CC(=O)O)NC(=O)[C@H](CO)NC(=O)[C@@H](NC(=O)[C@H](Cc1ccccc1)NC(=O)[C@@H](NC(=O)CNC(=O)[C@H](CCC(=O)O)NC(=O)C(C)(C)NC(=O)[C@@H](N)Cc1ccc(O)cc1)[C@@H](C)O)[C@@H](C)CC)[C@@H](C)CC)C(=O)N[C@@H](CC(N)=O)C(=O)N[C@@H](Cc1c[nH]c2ccccc12)C(=O)N[C@@H](CC(C)C)C(=O)N[C@@H](CC(C)C)C(=O)N[C@@H](C)C(=O)NCC(=O)N1CCC[C@H]1C(=O)N[C@@H](CO)C(=O)N[C@@H](CO)C(=O)NCC(=O)N[C@@H](C)C(=O)N1CCC[C@H]1C(=O)N1CCC[C@H]1C(=O)N1CCC[C@H]1C(=O)N[C@@H](CO)C(N)=O [Compound 31] (H-Y[Aib]EGTFISDYSIELDKK([AEEA-AEEA-γGlu-C20 diacid])AAQDFINWLLAGPSSGAPPPS-NH2) | 0.012 | 0.009 | > 100
CC[C@H](C)[C@H](NC(=O)[C@H](Cc1ccccc1)NC(=O)[C@H](CC(=O)O)NC(=O)[C@H](CCC(N)=O)NC(=O)[C@H](C)NC(=O)[C@H](C)NC(=O)[C@H](CCCCNC(=O)COCCOCCNC(=O)COCCOCCNC(=O)CC[C@H](NC(=O)CCCCCCCCCCCCCCCCCCC(=O)O)C(=O)O)NC(=O)[C@H](CCCCN)NC(=O)[C@H](CC(=O)O)NC(=O)[C@H](CC(C)C)NC(=O)[C@H](CCC(=O)O)NC(=O)[C@@H](NC(=O)[C@H](CO)NC(=O)[C@H](Cc1ccc(O)cc1)NC(=O)[C@H](CC(=O)O)NC(=O)[C@H](CO)NC(=O)[C@@H](NC(=O)[C@H](Cc1ccccc1)NC(=O)[C@@H](NC(=O)CNC(=O)[C@H](CCC(=O)O)NC(=O)C(C)(C)NC(=O)[C@@H](N)Cc1ccc(O)cc1)[C@@H](C)O)[C@@H](C)CC)[C@@H](C)CC)C(=O)N[C@@H](CCC(=O)O)C(=O)N[C@@H](Cc1c[nH]c2ccccc12)C(=O)N[C@@H](CC(C)C)C(=O)N[C@@H](CC(C)C)C(=O)N[C@@H](C)C(=O)NCC(=O)N1CCC[C@H]1C(=O)N[C@@H](CO)C(=O)N[C@@H](CO)C(=O)NCC(=O)N[C@@H](C)C(=O)N1CCC[C@H]1C(=O)N1CCC[C@H]1C(=O)N1CCC[C@H]1C(=O)N[C@@H](CO)C(N)=O [Compound 32] (H-Y[Aib]EGTFISDYSIELDKK([AEEA-AEEA-γGlu-C20 diacid])AAQDFIEWLLAGPSSGAPPPS-NH2) | 0.02 | 0.012 | > 100
CC[C@H](C)[C@H](NC(=O)[C@H](CCCCNC(=O)COCCOCCNC(=O)COCCOCCNC(=O)CC[C@H](NC(=O)CCCCCCCCCCCCCCCCCCC(=O)O)C(=O)O)NC(=O)[C@H](CC(=O)O)NC(=O)[C@H](CC(C)C)NC(=O)[C@H](CCC(=O)O)NC(=O)[C@@H](NC(=O)[C@H](CO)NC(=O)[C@H](Cc1ccc(O)cc1)NC(=O)[C@H](CC(=O)O)NC(=O)[C@H](CO)NC(=O)[C@@H](NC(=O)[C@H](Cc1ccccc1)NC(=O)[C@@H](NC(=O)CNC(=O)[C@H](CCC(=O)O)NC(=O)C(C)(C)NC(=O)[C@@H](N)Cc1ccc(O)cc1)[C@@H](C)O)[C@@H](C)CC)[C@@H](C)CC)C(=O)N[C@@H](C)C(=O)N[C@@H](CCC(N)=O)C(=O)N[C@@H](CCCNC(=N)N)C(=O)N[C@@H](C)C(=O)N[C@@H](Cc1ccccc1)C(=O)N[C@H](C(=O)N[C@@H](CCC(=O)O)C(=O)N[C@@H](Cc1c[nH]c2ccccc12)C(=O)N[C@@H](CC(C)C)C(=O)N[C@@H](CC(C)C)C(=O)N[C@@H](C)C(=O)N[C@@H](CCC(N)=O)C(=O)NCC(=O)N1CCC[C@H]1C(=O)N[C@@H](CO)C(=O)N[C@@H](CO)C(=O)NCC(=O)N[C@@H](C)C(=O)N1CCC[C@H]1C(=O)N1CCC[C@H]1C(=O)N1CCC[C@H]1C(=O)N[C@@H](CO)C(N)=O)[C@@H](C)CC [Compound 34] (H-Y[Aib]EGTFISDYSIELDK([AEEA-AEEA-γGlu-C20 diacid])IAQRAFIEWLLAQGPSSGAPPPS-NH2) | 0.011 | 0.017 | > 10
CC[C@H](C)[C@H](NC(=O)[C@H](Cc1ccccc1)NC(=O)[C@H](C)NC(=O)[C@H](CCCNC(=N)N)NC(=O)[C@H](CCC(N)=O)NC(=O)[C@H](C)NC(=O)[C@H](CCCCNC(=O)COCCOCCNC(=O)COCCOCCNC(=O)CC[C@H](NC(=O)CCCCCCCCCCCCCCCCCCC(=O)O)C(=O)O)NC(=O)[C@H](CCCCN)NC(=O)[C@H](CC(=O)O)NC(=O)[C@H](CC(C)C)NC(=O)[C@H](CCC(=O)O)NC(=O)[C@@H](NC(=O)[C@H](CO)NC(=O)[C@H](Cc1ccc(O)cc1)NC(=O)[C@H](CC(=O)O)NC(=O)[C@H](CO)NC(=O)[C@@H](NC(=O)[C@H](Cc1ccccc1)NC(=O)[C@@H](NC(=O)CNC(=O)[C@H](CCC(=O)O)NC(=O)[C@@H](C)NC(=O)[C@@H](N)Cc1ccc(O)cc1)[C@@H](C)O)[C@@H](C)CC)[C@@H](C)CC)C(=O)N[C@@H](CCC(=O)O)C(=O)N[C@@H](Cc1c[nH]c2ccccc12)C(=O)N[C@@H](CC(C)C)C(=O)N[C@@H](CC(C)C)C(=O)N[C@@H](C)C(=O)N[C@@H](CCC(N)=O)C(=O)NCC(=O)N1CCC[C@H]1C(=O)N[C@@H](CO)C(=O)N[C@@H](CO)C(=O)NCC(=O)N[C@@H](C)C(=O)N1CCC[C@H]1C(=O)N1CCC[C@H]1C(=O)N1CCC[C@H]1C(=O)N[C@@H](CO)C(N)=O [Compound 36] (H-Y[dA]EGTFISDYSIELDKK([AEEA-AEEA-γGlu-C20 diacid])AQRAFIEWLLAQGPSSGAPPPS-NH2) | 0.006 | 0.006 | > 10
CC[C@H](C)[C@H](NC(=O)[C@H](CCCCN)NC(=O)[C@H](CC(=O)O)NC(=O)[C@H](CC(C)C)NC(=O)[C@H](CCC(=O)O)NC(=O)[C@@H](NC(=O)[C@H](CO)NC(=O)[C@H](Cc1ccc(O)cc1)NC(=O)[C@H](CC(=O)O)NC(=O)[C@H](CO)NC(=O)[C@@H](NC(=O)[C@H](Cc1ccccc1)NC(=O)[C@@H](NC(=O)CNC(=O)[C@H](CCC(=O)O)NC(=O)[C@@H](C)NC(=O)[C@@H](N)Cc1ccc(O)cc1)[C@@H](C)O)[C@@H](C)CC)[C@@H](C)CC)C(=O)N[C@@H](C)C(=O)N[C@@H](C)C(=O)N[C@@H](CCC(N)=O)C(=O)N[C@@H](CC(=O)O)C(=O)N[C@@H](Cc1ccccc1)C(=O)N[C@H](C(=O)N[C@@H](CCC(=O)O)C(=O)N[C@@H](Cc1c[nH]c2ccccc12)C(=O)N[C@@H](CC(C)C)C(=O)N[C@@H](CC(C)C)C(=O)N[C@@H](C)C(=O)NCC(=O)N1CCC[C@H]1C(=O)N[C@@H](CO)C(=O)N[C@@H](CO)C(=O)NCC(=O)N[C@@H](C)C(=O)N1CCC[C@H]1C(=O)N1CCC[C@H]1C(=O)N1CCC[C@H]1C(=O)N[C@@H](CO)C(=O)N[C@@H](CCCCNC(=O)COCCOCCNC(=O)COCCOCCNC(=O)CN1CCN(C(=O)CCCCCCCCCCCCCCCCCCC(=O)O)CC1)C(N)=O)[C@@H](C)CC [Compound 37] (H-Y[dA]EGTFISDYSIELDKIAAQDFIEWLLAGPSSGAPPPSK([AEEA-AEEA-X1])-NH2) | 0.016 | 0.006 | > 10
